Entries after “also recorded” stand apart in the source; their conditions may differ.
How the values were obtained:
Type in all cases: in vivo, rat
[1] = tested on: ovariectomized female rats; test: CGRP-induced hot flash response (skin temperature) in ovariectomized rats
Source text: (§1) The animals arrived at approximately 60 days of age, and were placed on specific diets throughout the study (to approximately 160 days of age). The diets were formulated and provided by Dyets Inc. (Bethlehem, Pa.) and are based on a modified AIN-93G diet. These diets were fed ad libitum. Two weeks after arrival, at approximately […] of age, the animals were ovariectomized, allowed to recover for three weeks, and then placed on defined diets. In the first study, these diets contained 0, 0.08, 0.48, 3.2, 18.5, 185, or 3700 μg/kg/day of NMS dihydrochloride (FIG. 2). In the second, follow-up study, the diets contained no NMS (control), NMS oxalate (18.5 or 55.5 μg/kg/d), or milled Zanthoxylum seed in quantities that supplied NMS-glucoside at equivalent doses (18.5 or 55.5 μg/kg/d; FIG. 8). The NMS and NMS-glucoside content was verified using liquid chromatography with mass spectrometric etection. Extraction methods were similar to those of Yanase et al., 2010.
(§2) All diets were fed for 2 weeks prior to the first behavioral assessment (open field). Positive control animals received a 5.0 mm subcutaneous silastic capsule implant packed with a crystalline 17β-estradiol and cholesterol mixture (25%, 0.058 inch inner diameter, 0.077 inch outer diameter; Dow Corning #508-006). Animals were then examined for locomotor activity (open field) and in two behavioral assays to assess mood (elevated plus maze and swim test) separated by two weeks in-between each assay. Two weeks after the final behavioral task (swim test), the animals were anesthetized and their physiological response to an experimentally-induced hot flash was tested. After the temperature monitoring was complete, tissue was harvested while the animals were still anesthetized.
Two weeks after arrival, each animal was anesthetized via isoflurane inhalation and the dorsal mid-lumbar area was shaved and swabbed with surgical scrub, iodine and alcohol. The animal was then placed on a warm heat pad covered by a sterile cloth/pad in ventral recumbency with tail towards surgeon. A 2-3 cm dorsal midline skin incision was made halfway between the caudal edge of the ribcage and the base of the tail. A single transverse incision of 5.5-10 mm long was made into the muscle wall on both the right and left sides approximately ⅓ of the distance between the spinal cord and the ventral midline. The ovary and the oviduct were exteriorized through the muscle wall. A hemostat was clamped around the uterine vasculature between the oviduct and uterus and the uterine vasculature was ligated with dissolvable suture. Each ovary and part of the oviduct was removed with single cuts through the oviducts near the ovary. The hemostat was removed, and the remaining tissue replaced into the peritoneal cavity. The ovary on the other side was removed in a similar manner. The muscle incision is not sutured. Sterile wound clips were used to close the skin incision. Animals were monitored daily for signs of infection or morbidity.
Animals were anesthetized with intraperitoneal co-injection of urethane (750 mg/kg) and α-chloralose (60 mg/kg). […] Thermistor probes (ADI Instruments, Colorado Springs, Colo.) were taped to the plantar surfaces of one hind foot. Forty minutes later, after anesthesia-induced hypothermia had stabilized, the basal skin temperature was recorded. Temperature monitoring then occurred at 5-second intervals throughout the remainder of the experiment. Calcitonin gene related peptide (CGRP; 10 μg/kg, i.v.) dissolved in saline was then injected via the tail vein. A maximum of eight animals were tested at the same time due to limitations on instrumental throughput. Cage mates were always tested together in order to avoid the stresses of single-housing and the potential stress hormone effects on body temperature. Therefore only four groups could be tested within any one given day.

[2] = tested on: plasma estradiol; test: Circulating (plasma) estradiol levels in ovariectomized female rats; settings: for plasma estradiol: first study, FIG. 5, dietary NMS supplementation, estradiol supplemented animals
Source text: as §1, §2

[3] = Body weight of ovariectomized female rats; settings: for body weight: FIG. 6A, dietary NMS vs control diet, estradiol implanted, throughout the experiment
Source text: as §1, §2

[4] = tested on: ovariectomized female rats; test: Uterine weight (uterotrophic effect) in ovariectomized female rats; settings: vs ovariectomized controls; for uterine weight: first study, FIG. 6D, after 80 days of supplementation; for uterine weight / uterine growth: follow-up study, FIG. 11A
Source text: as §1, §2

[5] = tested on: ovariectomized female rats; test: Forced swim test (depressive-like behaviors); settings: first study, FIG. 7A; estradiol implanted
Method: Each rat was examined in the swim test for depressive-like behaviors. The test was performed over two consecutive days since it is a measure of an adaptive response to a perceived inescapable situation. The first test establishes to the animal that it is an inescapable situation, and the second test measures the animal's degree of passive coping derived from an unwillingness to maintain effort in an inescapable situation. Typical antidepressants limit the amount of passive coping (immobility) and promote the amount of active coping (swimming/climbing). On day one (0800 h to 1300 h), animals were acclimated to the test by placing them in a plexiglass cylindrical container (45 cm×20 cm) filled with 30 cm of fresh water (25° C.) for fifteen minutes, after which they were toweled dried and returned to their home cage. On day two (24 hrs later) the test was performed for a total swim time of five minutes, after which the rats were toweled dried and returned to their home cage. Both trials were recorded by a digital video camera was secured to the ceiling above the cylinders and connected to a laptop. Total time spent swimming and immobile was measured real-time by behavioral software (Anymaze, Stoelting Co.), and scored post hoc by a blinded experimenter from captured video. […]

[6] = tested on: ovariectomized female rats; test: Behavioral measures of mood (open field, elevated plus maze, swim test)
Source text: as §2, with “After the temperature monitoring was complete, tissue was harvested while the animals were still anesthetized.” left out
Animals were tested in the open field to measure overall locomotor activity and basal anxiety state. […] Rats were placed in the middle of the chamber and behavior in the open field was recorded for thirty minutes with a digital camera and measured by software (AnyMaze, Stoelting Co., Inc.). The following parameters were analyzed: a) total distance traveled; b) time in center; c) center entries; and d) number of fecal boli excreted.
Animals were tested on the elevated plus maze to measure anxiety-related behavior. […] Each rat was placed in the central platform facing one of the open arms, and its behavior was recorded during a 5-min testing period with video capture software (AnyMaze). […]

[7] = first study, dietary NMS, dose not stated, estradiol subcutaneous, no dietary NMS (positive control)
[8] = first study, dietary NMS, dose not stated, estradiol subcutaneous, no dietary NMS (positive control), CGRP 10 μg/kg i.v.
[9] = follow-up study, FIG. 9, milled Zanthoxylum seed supplying NMS-glucoside 18.5 or 55.5 μg/kg/d, NMS oxalate 18.5 or 55.5 μg/kg/d, or estradiol, vs untreated controls
[10] = first study, representative data FIG. 3, 0.48 ug/kg/d NMS through diet vs untreated controls

With C[C@]12CC[C@@H]3c4ccc(O)cc4CC[C@H]3[C@@H]1CC[C@@H]2O [estradiol, 17β-estradiol, reference compound] the “basal (baseline) skin temperature” value [1, 7] was “lowest basal temperatures”, the “CGRP-induced hot flash response” value [1, 8] was “lowest responses to CGRP” and the “CGRP-induced hot flash response” value [1, 9] was “blunted the CGRP-induced hot flash response”. The plasma estradiol [2] was “highest levels of plasma estradiol”, the body weight ([3]; first study) was “significantly lower body weight” and the “body weight throughout the experiment” value ([3]; follow-up study, FIG. 11B, estradiol implanted vs all other groups) was “significantly lower body weight”. For the same compound, the uterine weight [4] was “significantly higher uterine weights”, the “uterine weight / uterine growth” value [4] was “significantly higher uterine weights” and the “time immobile during the second session of the forced swim test” value [5] was “spent less time immobile”.

For CNCCc1c[nH]c2ccc(O[C@@H]3O[C@H](CO)[C@@H](O)[C@H](O)[C@H]3O)cc12 [NMS-glucoside, N-methylserotonin 5-O-β-glucoside], the “CGRP-induced hot flash response” value [1, 9] was “blunted the CGRP-induced hot flash response”.

In the case of CNCCc1c[nH]c2ccc(O)cc12 [NMS, N-methylserotonin], the basal skin temperature ([1]; first study, FIG. 3 and 4, 18.5 ug/kg/d NMS through diet vs untreated controls) is reported as “lower basal temperatures; also recorded: decreased basal skin temperature”, the “CGRP response above calculated baseline (skin temperature)” value [1, 10] is reported as “lower CGRP responses” and the basal skin temperature [1, 10] is reported as “lower basal temperatures”. The “CGRP response above calculated baseline (skin temperature)” value ([1]; first study, representative data FIG. 3, 18.5 ug/kg/d NMS through diet vs untreated controls) was “lower CGRP responses”, the “basal (baseline) skin temperature” value [1, 7] was “reduced baseline skin temperature” and the “CGRP-induced hot flash response” value [1, 8] was “blunted the CGRP-induced hot flash response”. The “CGRP-induced hot flash response” value [1, 9] was “blunted the CGRP-induced hot flash response”, the plasma estradiol [2] was “increased plasma estradiol in a dose-dependent manner” and the non-uterine estradiol secretion ([2]; results summary) was “tripled”. The body weight ([3]; first study) was “did not alter body weight”, the “weight change as a percentage of original weight” value ([3]; first study, FIG. 6B and C, throughout or at the end of the study) was “not different between dietary treatments” and the uterine weight [4] was “did not alter uterine weight”. For the same compound, the “uterine weight / uterine growth” value [4] was “did not alter uterine weight”, the “behavioral measures of mood” value ([6]; first study, FIG. 7, dietary NMS) was “did not alter behavioral measures of mood” and the “behavioral measures of mood / mood-related behaviors” value ([6]; follow-up study, FIG. 10) was “did not alter behavioral measures of mood”.
